Key:
[1] = Tmax in cynomolgus monkey at 3 mg/kg, po; assay type: ADME, organism-based, Macaca fascicularis; set-up: dose 3 mg/kg, route oral; details: in vivo
[2] = Half life in cynomolgus monkey at 3 mg/kg, po; assay type: ADME, organism-based, Macaca fascicularis; set-up: dose 3 mg/kg, route oral; details: in vivo
[3] = AUC (0 to infinity) in cynomolgus monkey at 3 mg/kg, po; assay type: ADME, organism-based, Macaca fascicularis; set-up: dose 3 mg/kg, route oral, time infinity; details: plasma
[4] = Clearance in cynomolgus monkey at 1 mg/kg, iv; assay type: ADME, organism-based, Macaca fascicularis; set-up: dose 1 mg/kg, route intravenous; details: in vivo
[5] = Oral bioavailability in cynomolgus monkey at 3 mg/kg; assay type: ADME, organism-based, Macaca fascicularis; details: in vivo
[6] = Antiproliferative activity against human HCT116 cells expressing K-Ras […] mutant after 72 hrs by Cell-Titre Blue assay; assay type: functional, cell-based; details: HCT-116, 72 h
A-375 = experiment: Antiproliferative activity against human A375 cells expressing B-Raf V600E mutant after 72 hrs by Cell-Titre Blue assay; assay type: functional, cell-based; details: A-375, 72 h
Mus musculus [7] = experiment: In vivo inhibition of ERK2 in nude mouse xenografted with human HCT116 cells assessed as pRSK knockdown at 75 mg/kg, po qd after 1 hr relative to vehicle-treated control; assay type: functional; details: HCT-116, 1 h
Mus musculus [8] = experiment: In vivo inhibition of ERK2 in nude mouse xenografted with human HCT116 cells assessed as pRSK knockdown at 75 mg/kg, po qd after 8 hrs relative to vehicle-treated control; assay type: functional; details: HCT-116, 8 h
Mus musculus [9] = experiment: In vivo inhibition of ERK2 in nude mouse xenografted with human HCT116 cells assessed as pRSK knockdown at 150 mg/kg, po qd after 8 hrs relative to vehicle-treated control; assay type: functional; details: HCT-116, 8 h
Mus musculus [10] = experiment: Toxicity in nude mouse xenografted with human HCT116 cells assessed as body weight loss at 150 mg/kg, po bid relative to vehicle-treated control; assay type: organism-based, HCT-116; set-up: dose 150 mg/kg, route oral; details: in vivo
[11] = Toxicity in po dosed nude mouse xenografted with human HCT116 cells administered bid; assay type: organism-based, HCT-116; details: in vivo
[12] = Clearance in CD-1 mouse at 0.5 mg/kg, iv; assay type: ADME, organism-based; set-up: dose 0.5 mg/kg, route intravenous; details: in vivo
[13] = Oral bioavailability in CD-1 mouse at 2 mg/kg; assay type: ADME, organism-based; details: in vivo
[14] = Cmax in NCR nude mouse at 30 mg/kg, po; assay type: ADME, organism-based; set-up: dose 30 mg/kg, route oral; details: in vivo
[15] = Tmax in NCR nude mouse at 30 mg/kg, po; assay type: ADME, organism-based; set-up: dose 30 mg/kg, route oral; details: in vivo
[16] = Half life in NCR nude mouse at 30 mg/kg, po; assay type: ADME, organism-based; set-up: dose 30 mg/kg, route oral; details: in vivo
[17] = AUC (0 to infinity) in NCR nude mouse at 30 mg/kg, po; assay type: ADME, organism-based; set-up: time infinity, dose 30 mg/kg, route oral; details: plasma
[18] = Clearance in NCR nude mouse at 1 mg/kg, iv; assay type: ADME, organism-based; set-up: dose 1 mg/kg, route intravenous; details: in vivo
[19] = Oral bioavailability in NCR nude mouse at 30 mg/kg; assay type: ADME, organism-based; details: in vivo
[20] = Cmax in NCR nude mouse at 100 mg/kg, po; assay type: ADME, organism-based; set-up: dose 100 mg/kg, route oral; details: in vivo
[21] = Tmax in NCR nude mouse at 100 mg/kg, po; assay type: ADME, organism-based; set-up: dose 100 mg/kg, route oral; details: in vivo
[22] = Half life in NCR nude mouse at 100 mg/kg, po; assay type: ADME, organism-based; set-up: dose 100 mg/kg, route oral; details: in vivo
[23] = AUC (0 to infinity) in NCR nude mouse at 100 mg/kg, po; assay type: ADME, organism-based; set-up: time infinity, dose 100 mg/kg, route oral; details: plasma
[24] = Oral bioavailability in NCR nude mouse at 100 mg/kg; assay type: ADME, organism-based; details: in vivo
[25] = Cmax in NCR nude mouse at 150 mg/kg, po; assay type: ADME, organism-based; set-up: dose 150 mg/kg, route oral; details: in vivo
[26] = Tmax in NCR nude mouse at 150 mg/kg, po; assay type: ADME, organism-based; set-up: dose 150 mg/kg, route oral; details: in vivo
[27] = Half life in NCR nude mouse at 150 mg/kg, po; assay type: ADME, organism-based; set-up: dose 150 mg/kg, route oral; details: in vivo
[28] = AUC (0 to infinity) in NCR nude mouse at 150 mg/kg, po; assay type: ADME, organism-based; set-up: time infinity, dose 150 mg/kg, route oral; details: plasma
[29] = Oral bioavailability in NCR nude mouse at 150 mg/kg; assay type: ADME, organism-based; details: in vivo
[30] = Cmax in Sprague-Dawley rat at 5 mg/kg, po; assay type: ADME, organism-based; set-up: dose 5 mg/kg, route oral; details: in vivo
[31] = Tmax in Sprague-Dawley rat at 5 mg/kg, po; assay type: ADME, organism-based; set-up: dose 5 mg/kg, route oral; details: in vivo
[32] = Half life in Sprague-Dawley rat at 5 mg/kg, po; assay type: ADME, organism-based; set-up: dose 5 mg/kg, route oral; details: in vivo
[33] = AUC (0 to infinity) in Sprague-Dawley rat at 5 mg/kg, po; assay type: ADME, organism-based; set-up: time infinity, dose 5 mg/kg, route oral; details: plasma
[34] = Clearance in Sprague-Dawley rat at 1 mg/kg, iv; assay type: ADME, organism-based; set-up: dose 1 mg/kg, route intravenous; details: in vivo
[35] = Oral bioavailability in Sprague-Dawley rat at 5 mg/kg; assay type: ADME, organism-based; details: in vivo
[36] = Cmax in beagle dog at 2 mg/kg, po; assay type: ADME, organism-based, Canis lupus familiaris; set-up: dose 2 mg/kg, route oral; details: in vivo
[37] = Tmax in beagle dog at 2 mg/kg, po; assay type: ADME, organism-based, Canis lupus familiaris; set-up: dose 2 mg/kg, route oral; details: in vivo
[38] = Half life in beagle dog at 2 mg/kg, po; assay type: ADME, organism-based, Canis lupus familiaris; set-up: dose 2 mg/kg, route oral; details: in vivo
[39] = AUC (0 to infinity) in beagle dog at 2 mg/kg, po; assay type: ADME, organism-based, Canis lupus familiaris; set-up: dose 2 mg/kg, route oral, time infinity; details: plasma
[40] = Clearance in beagle dog at 1 mg/kg, iv; assay type: ADME, organism-based, Canis lupus familiaris; set-up: dose 1 mg/kg, route intravenous; details: in vivo
[41] = Oral bioavailability in beagle dog at 2 mg/kg; assay type: ADME, organism-based, Canis lupus familiaris; details: in vivo
[42] = Cmax in cynomolgus monkey at 3 mg/kg, po; assay type: ADME, organism-based, Macaca fascicularis; set-up: dose 3 mg/kg, route oral; details: in vivo

## O=C(N[C@H](CO)c1ccc(Cl)c(F)c1)N1CCc2cnc(NC3CCOCC3)nc2C1
[1]
  Tmax: 79.8 min
[2]
  half-life: 312 min
[3]
  AUC(0-inf): 0.65 µM·h
[4]
  clearance: 33 mL/min/kg
[5]
  bioavailability: 19%
[6]
  EC50: 740 nM
A-375
  EC50: 390 nM
Mus musculus [7]
  inhibition in vivo at 75 mg/kg: 75%
Mus musculus [8]
  inhibition in vivo at 75 mg/kg: 20%
Mus musculus [9]
  inhibition in vivo at 150 mg/kg: 55%
Mus musculus [10]
  Activity: Non-toxic
[11]
  MTD: 50 mg/kg
[12]
  clearance: 33 mL/min/kg
[13]
  bioavailability: 29%
[14]
  Cmax: 3120 nM
[15]
  Tmax: 30 min
[16]
  half-life: 144 min
[17]
  AUC(0-inf): 4.81 µM·h
[18]
  clearance: 134 mL/min/kg
[19]
  bioavailability: 58%
[20]
  Cmax: 9820 nM
[21]
  Tmax: 15 min
[22]
  half-life: 450 min
[23]
  AUC(0-inf): 30 µM·h
[24]
  bioavailability: 73%
[25]
  Cmax: 13900 nM
[26]
  Tmax: 15 min
[27]
  half-life: 162 min
[28]
  AUC(0-inf): 26.7 µM·h
[29]
  bioavailability: 64%
[30]
  Cmax: 90 nM
[31]
  Tmax: 19.8 min
[32]
  half-life: 102 min
[33]
  AUC(0-inf): 0.2 µM·h
[34]
  clearance: 104 mL/min/kg
[35]
  bioavailability: 11%
[36]
  Cmax: 590 nM
[37]
  Tmax: 25.2 min
[38]
  half-life: 36 min
[39]
  AUC(0-inf): 0.61 µM·h
[40]
  clearance: 32 mL/min/kg
[41]
  bioavailability: 26%
[42]
  Cmax: 160 nM

— ChEMBL document CHEMBL3297705, “Discovery of 5,6,7,8-tetrahydropyrido[3,4-d]pyrimidine inhibitors of Erk2” (Bioorg Med Chem Lett, 2014)
